Measurements from patent US4755514A, “Phenylpyrazine derivatives and thrombolytic agent” (Suntory Limited, priority 1985, dated 1988).

Assays:
[1] = test system: pulmonary embolism induced by adenosine-5'-diphosphate sodium salt (ADP 2Na); assay: prevention of pulmonary embolic death in mice (ADP 2Na injection); type: in vivo, Male ddY mice; details: 300 mg/kg peroral; for Number of animals dying within 3 minutes after injection/Number of animals in test, ADP 2Na: 3 h before 30 mg/kg ADP 2Na i.v., control: 6/6 died; for thrombolytic effects compared with Ticlopidine: from Table 1 (ADP 2Na and collagen), mice
[2] = test system: pulmonary embolism induced by collagen; assay: prevention of pulmonary embolic death in mice (collagen injection); type: in vivo, Male ddY mice; details: 300 mg/kg peroral, 3 h before collagen i.v.; control: 6/6 died
Protocol: The following tests were conducted to evaluate the effect of the claimed compounds in the prevention of pulmonary embolic death in mice.
Each of the compounds being tested was suspended in 0.5% carboxymethyl cellulose and administered perorally at a dosage of 300 mg/kg (0.1 ml/10 g body weight).
Male ddY mice weighing 18-20 g were subjected to the test after being starved overnight.
Three hours after oral administration of a selected test compound to the mice, 30 mg/kg of adenosine-5'-diphosphate sodium salt (Sigma Chemical Co., Grade IX) or collagen was injected through their tail veins. The number of mice which died of pulmonary embolism within 3 minutes after the intravenous injections was counted.
The adenosine-5'-diphosphate sodium salt (ADP 2Na) was in the form of a solution in physiological saline at a concentration of 300 mg/10 ml. The collagen was administered in the form of a solution which was prepared by the following procedure: 25 mg of collagen was uniformly sonicated in a solution containing 25 mmol of tris-HCl and 130 mmol of sodium chloride (pH: 7.3), and the resultant dispersion was incubated at 37° C. for 45 minutes to form a polymer (after incubation, the collagen solution was kept in ice-water until it was used).
As a control, 0.5% carboxymethyl cellulose (10 ml/kg) was administered through tail veins.

mice = test system: mice; parameters: species or system ddY male mice; details: mouse, in vivo
Protocol: The following acute toxicity test was conducted on mice:
Animal: Five-week old ddY male mice (wt: 21-27 g) in groups of 6.
Method: The mice were starved overnight and the compound prepared in Example 6 was administered perorally in an amount of 0.1 ml/10 g body weight after it was suspended in 0.5% carboxymethyl cellulose sodium salt (CMC-Na). As a control, 0.5% CMC-Na solution was administered.

SMILES | Number of animals dying within 3 minutes after injection/Number of animals in test, ADP 2Na [1] | thrombolytic effects compared with Ticlopidine [1] | Number of animals dying within 3 minutes after injection/Number of animals in test, Collagen [2] | animals that died at the dosage levels used (mice) | changes in the general condition of the mice (mice)
Clc1ccc(-c2cnccn2)cc1 [Example 1, 2-(4-chlorophenyl)pyrazine] | 4/9 | equal to or greater than the levels achieved by a known thrombolytic agent, Ticlopidine | 2/8 |  | 
Cc1ccc(-c2cnccn2)cc1 [Example 2, 2-(4-methylphenyl)pyrazine] | 3/7 |  | 7/8 |  | 
COc1ccc(-c2cnccn2)cc1 [Example 3, 2-(4-methoxyphenyl)pyrazine] | 4/7 |  | 6/8 |  | 
Clc1cccc(-c2cnccn2)c1 [Example 4, 2-(3-chlorophenyl)pyrazine] | 5/10 |  | 6/10 |  | 
Clc1ccc(-c2cnccn2)c(Cl)c1 [Example 5, 2-(2,4-dichlorophenyl)pyrazine] | 6/10 |  | 4/10 |  | 
Clc1ccc(-c2cnccn2)cc1Cl [Example 6, 2-(3,4-dichlorophenyl)pyrazine] | 3/10 | equal to or greater than the levels achieved by a known thrombolytic agent, Ticlopidine | 4/10 | none of the animals treated with the compound of Example 6 died | No apparent changes were observed
Clc1ccccc1-c1cnccn1 [Example 7, 2-(2-chlorophenyl)pyrazine] | 5/10 |  | 6/9 |  | 
Oc1ccc(-c2cnccn2)cc1 [Example 8, 2-(4-hydroxyphenyl)pyrazine] | 4/7 |  | 7/8 |  | 
